# Values of other authors, collected in patent publication US7648982B2 (priority 2003, dated 2010).
# Tests used:
# [1] = in vivo
# [2] = in vivo, iv
smiles,measurement,setting,value
CN1CC[C@]23c4c5ccc(O)c4O[C@H]2[C@@H](O)C=C[C@H]3[C@H]1C5 [morphine],K10,[1],Morphine_K10 = 0.07051
same,K12,[1],Morphine_K12 = 0.1273
same,K13,[1],Morphine_K13 = 0.01826
same,K21,[1],Morphine_K21 = 0.02596
same,K31,[1],Morphine_K31 = 0.001633
same,Ke0,[1],Morphine_Ke0 = 0.005
same,V1,[1],Morphine_V1 = 17.8
same,delay of peak drug effect from the time of injection,[2],10 to 15 min
